Experimental data reported in US20110312961A1, “2,5-Disubstituted Morpholine Orexin REceptor Antagonists” (priority 2008, published 2011).

Key:
[1] = target: T1, rat native α4β2 receptors (Rattus norvegicus, UniProt P09483+P12390); assay: Radioligand binding, rat cortex membranes (α4β2); details: read-out: Ki, inhibition of [3H]epibatidine binding to rat native α4β2 receptors
T1 construct: rat native α4β2 receptors; from tissue; host or cells: rat (female Sprague-Dawley) cerebral cortex membranes
T1 sequence (P09483 31-630): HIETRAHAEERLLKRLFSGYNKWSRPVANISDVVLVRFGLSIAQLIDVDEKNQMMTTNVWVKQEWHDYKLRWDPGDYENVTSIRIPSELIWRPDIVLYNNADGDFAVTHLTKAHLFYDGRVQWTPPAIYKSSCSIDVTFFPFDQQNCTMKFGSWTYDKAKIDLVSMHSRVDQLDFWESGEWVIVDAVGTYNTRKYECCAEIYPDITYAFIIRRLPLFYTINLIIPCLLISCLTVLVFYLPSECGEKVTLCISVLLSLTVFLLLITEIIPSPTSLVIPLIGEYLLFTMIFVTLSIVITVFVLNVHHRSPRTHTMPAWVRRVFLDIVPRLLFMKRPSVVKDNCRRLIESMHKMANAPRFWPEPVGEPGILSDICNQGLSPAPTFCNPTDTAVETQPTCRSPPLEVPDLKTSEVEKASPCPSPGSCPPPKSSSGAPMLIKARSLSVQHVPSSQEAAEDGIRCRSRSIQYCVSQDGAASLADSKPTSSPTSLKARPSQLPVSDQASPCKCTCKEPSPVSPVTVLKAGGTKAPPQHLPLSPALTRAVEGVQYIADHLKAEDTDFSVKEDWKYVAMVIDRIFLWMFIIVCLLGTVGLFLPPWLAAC
T1 sequence (P12390 25-500): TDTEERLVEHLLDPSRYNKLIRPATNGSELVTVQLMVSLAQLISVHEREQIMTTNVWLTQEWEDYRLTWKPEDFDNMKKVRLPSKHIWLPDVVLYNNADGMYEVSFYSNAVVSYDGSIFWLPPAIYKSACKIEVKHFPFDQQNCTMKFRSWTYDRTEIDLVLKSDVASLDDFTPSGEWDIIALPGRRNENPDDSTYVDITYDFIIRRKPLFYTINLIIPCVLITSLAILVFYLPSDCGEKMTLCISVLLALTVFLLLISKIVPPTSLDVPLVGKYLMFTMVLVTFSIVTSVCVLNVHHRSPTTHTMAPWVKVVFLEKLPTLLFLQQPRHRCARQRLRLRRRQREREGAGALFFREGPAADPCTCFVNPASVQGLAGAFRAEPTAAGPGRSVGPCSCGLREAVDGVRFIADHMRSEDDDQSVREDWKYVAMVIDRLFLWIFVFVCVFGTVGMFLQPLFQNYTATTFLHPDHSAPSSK
Method: Preparation of Membranes from Rat Cortex: Rats (Female, Sprague-Dawley), weighing 150-250 g, were maintained on a 12 h light/dark cycle and were allowed free access to water and food supplied by PMI Nutrition International, Inc. Animals were anesthetized with 70% CO2, and then decapitated. Brains were removed and placed on an ice-cold platform. The cerebral cortex was removed and placed in 20 volumes (weight:volume) of ice-cold preparative buffer (137 mM NaCl, 10.7 mM KCl, 5.8 mM KH2PO4, 8 mM Na2HPO4, 20 mM HEPES (free acid), 5 mM iodoacetamide, 1.6 mM EDTA, pH 7.4); PMSF, dissolved in methanol to a final concentration of 100 μM, was added and the suspension was homogenized by Polytron. […]
On the day of the assay, the frozen membranes were thawed and spun at 48,000×g for 20 min. […] Protein concentrations were determined using a Pierce BCA Protein Assay Kit, with bovine serum albumin as the standard (Pierce Chemical Company, Rockford, Ill.).
[…] Filters were then counted to determine radioactivity bound to the membranes by liquid scintillation counting (2200CA Tri-Carb LSC, Packard Instruments, 50% efficiency or Wallac Trilux 1450 MicroBeta, 40% efficiency, Perkin Elmer).
Data were expressed as disintegrations per minute (DPMs). […] Ki values were calculated using the Cheng-Prussof equation (1973): […]

[2] = tested on: STZ rat model of diabetic neuropathy; assay: Streptozotocin (STZ)-induced diabetic neuropathy, Von Frey allodynia; assay type: in vivo; details: for allodynia (Von Frey): 30 minutes after administration
From the text: Peripheral neuropathy, a major complication of diabetes, often results in spontaneous pain or the perception of pain from contact with a normally non-noxious stimulus. Such neuropathic pain is experienced by 20-24% of diabetic patients, or approximately 30 million people worldwide (Schmader, 2002). The streptozotocin (STZ)-induced diabetes model in rats provides a means to evaluate the efficacy of test compounds that offer therapeutic potential for peripheral neuropathy and to understand their putative mechanism of action. In this model, a single injection of STZ, an antibiotic that mimics clinical diabetes by causing irreversible damage to the pancreatic β and α-cells leads to chronic hyperglycemia, nerve dysfunction and pain sensitivity. The current study utilizes the STZ rat model of diabetic neuropathy to investigate the effects of (2S,3R)—N-2-((3-pyridinyl)methyl)-1-azabicyclo[2.2.2]oct-3-yl)-3,5-difluorobenzamide on mechanical allodynia, an assessment of pain.
Diabetes was induced by a 0.5 ml injection of streptozotocin (60 mg/kg) dissolved in citrate buffer (pH) into the tail vein of each rat The development of diabetes was confirmed by measuring the blood glucose levels (BGL) of all animals on study day 3 (BGL>300 mg/dL). […] These animals were tested again for their BGL at study day 23.
(2S,3R)—N-2-((3-pyridinyl)methyl)-1-azabicyclo[2.2.2]oct-3-yl)-3,5-difluorobenzamide (0.1, 1 or 10 mg/kg p.o.) was administered as a solution of the hydrochloride salt in water once daily starting on study day 14 or study day 16 and continuing through study day 21 or 23, respectively. The control article gabapentin (in 0.9% saline, 150 mg/kg i.p.) was only administered on allodynia test days. Test item, vehicle or control article administration was based on evaluation of allodynia on study day 14. If allodynia was not present on study day 14, the animal was evaluated again at study day 16. Pain response was measured either on study days 14 and 21 or 16 and 23, 30 minutes after Test Item administration.
For the allodynia assessments, Von Frey filaments were used according to the methods of Chaplan and colleagues (1994). Briefly, the rats were placed in an enclosure and positioned on a metal mesh surface, but allowed to move freely. The rats' cabins were covered with red cellophane to diminish environmental distributions. The test began after cessation of exploratory behavior.
When the tip of a Von Frey fiber of given length and diameter was pressed against the skin at right angles, the force of application increases as long as the researcher continued to advance the probe until the fiber bent. After the fiber bent, the probe was advanced, causing the fiber to bend more, but without additional force being applied. The animal would indicate sensation by pulling back its paw. In the absence of a paw withdrawal response to the initially selected filament, a stronger stimulus was presented; in the event of paw withdrawal, the next weaker stimulus was chosen. In this fashion, the resulting pattern of positive and negative responses was used to determine the paw withdrawal threshold.
The set of Von Frey monofilaments provide an approximate logarithmic scale of actual force and a linear scale of perceived intensity. Below is a table showing the force (g) and its corresponding size of monofilaments.
All normally distributed data are presented as means±SEM, as well as the animals' individual values followed by a student T-test (Software: Microsoft® Excel). A p value <0.05 is considered to represent a significant difference. Due to the non-normal distribution of the allodynia data, descriptions of those data are provided as both mean (±SEM) and median values in order to represent their imprecise nature and skewed distribution.

For `O=C(N[C@@H]1C2CCN(CC2)[C@H]1Cc1cccnc1)c1cc(F)cc(F)c1` [Compound A], the Ki [1] was 4.12 µM, the “allodynia (Von Frey)” value ([2]; 1 mg/kg p.o., study days 14/16, p<0.01 vs pretreatment, p<0.05 vs Vehicle) was “inhibited allodynia” and the “allodynia (Von Frey)” value ([2]; 1 mg/kg p.o., study days 21/23, p=0.012 vs pretreatment) was “inhibited allodynia”. For the same molecule, the “allodynia (Von Frey)” value ([2]; 10 mg/kg p.o., study days 14/16, p=0.012 vs pretreatment) was “inhibited allodynia”, the “allodynia (Von Frey)” value ([2]; 10 mg/kg p.o., study days 21/23, p<0.05 vs Vehicle) was “inhibited allodynia” and the “diabetic neuropathy pain, Von Frey assessment” value ([2]; doses of 1 mg/kg and 10 mg/kg compared to Vehicle, FIG. 14) was “effective in reducing diabetic neuropathy pain”.
